Literature values, collected in patent US8383579B2, “Method for customized dispensing of variable dose drug combination products for individualizing of therapies” (Glaxosmithkline, LLC, priority 2004, dated 2013).

Tests used:
[1] = Coreg + cimetidine
[2] = Lanoxin + coreg UID

AUC steady state [1] [%] | Cmax [1] | peak/trough conc [2] | Structure (SMILES)
30 | no change | – | COc1ccccc1OCCNCC(O)COc1cccc2[nH]c3ccccc3c12 (stereo not drawn) [Coreg]
– | – | 14-16% | C[C@H]1O[C@@H](O[C@H]2[C@@H](O)C[C@H](O[C@H]3[C@@H](O)C[C@H](O[C@H]4CC[C@@]5(C)[C@H](CC[C@@H]6[C@@H]5C[C@@H](O)[C@]5(C)[C@@H](C7=CC(=O)OC7)CC[C@]65O)C4)O[C@@H]3C)O[C@@H]2C)C[C@H](O)[C@@H]1O [Lanoxin, digoxin]
